Calls of active or inactive are those of the source.
How the values were obtained:
[1] = cytotoxicity in HMLE control line with eGFP shRNA, dose response, counter-screen for HMLE_sh_ECad selective toxicity project, cell-based, HMLE_sh_eGFP, luminescence (AID 463074); assay type: functional, Homo sapiens;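 also: HMLE human mammary epithelial cells expressing control shRNA against eGFP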
[2] = target: Potassium voltage-gated channel subfamily KQT member 2 (Rattus norvegicus, UniProt O88943); assay: KCNQ2 potassium channel inhibitors, dose response, cell-based, automated electrophysiology, set II, rat KCNQ2 (AID 588637); assay type: functional
[3] = Luminescence Cell-Based Dose Retest to Confirm Inhibitors of Cancer Stem Cells. [Related pubchem assays (depositor defined):AID2717, AID2721]; assay type: functional; conditions: Homo sapiens
Escherichia coli [4] = assay: microbe, parasite or virus in culture
[5] = growth induction of Burl-1 ts yeast mutant, dose response, counter-screen for SUMOylation pathway inhibitor project, whole organism, S. cerevisiae, luminescence (AID 463199); assay type: functional
HEK293 [6] = assay: optical interference in Abeta FP readout, dose response, artefact control for IDE activator project, biochemical, fluorescence polarization (AID 588442); assay type: functional, cell-based; conditions: Homo sapiens
cells [7] = conditions: A549
HEK293 [8] = assay: HEK cell cytotoxicity by LDH release, dose response, cytotoxicity control for IDE activator project, fluorescence, HEK cells (AID 588440); assay type: functional, cell-based; conditions: Homo sapiens;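 also: cytotoxicity by LDH release measuring loss of membrane integrity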
[9] = CFTR ΔF508 corrector activity in bronchial cells, dose response, human bronchial epithelial cells, plate reader, cherry-pick, two tests (AID 743267); assay type: functional, cell-based
[10] = target: UDP-galactopyranose mutase (Mycobacterium tuberculosis, UniProt P9WIQ1); assay: Inhibitors of Mycobacterium tuberculosis UDP-galactopyranose mutase (UGM) enzyme Measured in Biochemical System Using Plate Reader - 2105-02_Inhibitor_Dose_CherryPick_Activity. [Related pubchem assays (depositor defined):AID504439]
Beta Lactamase = Beta Lactamase (Pseudomonas aeruginosa, UniProt Q932Y6);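 also: confirmatory high-throughput screen measuring VIM-2 metallo-beta-lactamase inhibition by epi-absorbance in dose response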
Insulin-degrading enzyme [11] = target: T1, Insulin-degrading enzyme (Homo sapiens, UniProt P14735); assay: activators of endogenous IDE in HEK cells, dose response, cell-based, fluorescence polarization (AID 588439); assay type: functional
T1 sequence (P14735 whole entry): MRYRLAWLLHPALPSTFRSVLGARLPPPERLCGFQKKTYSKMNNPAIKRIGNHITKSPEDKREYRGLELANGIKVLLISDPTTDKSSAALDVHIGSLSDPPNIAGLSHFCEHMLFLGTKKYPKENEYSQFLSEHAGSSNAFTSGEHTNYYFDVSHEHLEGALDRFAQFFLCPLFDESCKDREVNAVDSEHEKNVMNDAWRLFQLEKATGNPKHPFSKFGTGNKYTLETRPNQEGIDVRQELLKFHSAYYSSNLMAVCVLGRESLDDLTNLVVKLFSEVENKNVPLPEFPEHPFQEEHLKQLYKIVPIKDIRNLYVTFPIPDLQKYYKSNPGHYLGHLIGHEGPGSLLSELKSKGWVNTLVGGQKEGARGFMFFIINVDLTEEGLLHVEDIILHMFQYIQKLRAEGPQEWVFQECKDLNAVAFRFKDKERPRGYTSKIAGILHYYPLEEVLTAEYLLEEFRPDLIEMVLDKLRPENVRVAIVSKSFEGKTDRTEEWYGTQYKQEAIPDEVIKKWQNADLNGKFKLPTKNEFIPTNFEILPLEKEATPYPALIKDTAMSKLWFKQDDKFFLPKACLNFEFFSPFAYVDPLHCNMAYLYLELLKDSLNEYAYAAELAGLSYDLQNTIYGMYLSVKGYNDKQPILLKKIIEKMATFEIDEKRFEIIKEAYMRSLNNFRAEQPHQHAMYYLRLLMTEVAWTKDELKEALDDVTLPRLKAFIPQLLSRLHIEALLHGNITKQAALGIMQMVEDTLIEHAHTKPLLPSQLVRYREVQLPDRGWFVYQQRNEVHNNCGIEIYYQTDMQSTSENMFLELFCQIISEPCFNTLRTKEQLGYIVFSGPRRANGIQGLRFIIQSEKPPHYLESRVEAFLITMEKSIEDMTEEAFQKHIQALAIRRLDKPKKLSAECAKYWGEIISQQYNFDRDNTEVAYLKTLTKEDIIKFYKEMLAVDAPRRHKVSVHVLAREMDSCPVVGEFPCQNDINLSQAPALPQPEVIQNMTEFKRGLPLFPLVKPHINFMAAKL

Insulin-degrading enzyme [12] = target: T1, Insulin-degrading enzyme; assay: activators of recombinant IDE enzyme, dose response, counter-screen for IDE activator project, biochemical, fluorescence polarization (AID 588681)
ORF 73 = ORF 73 (Human herpesvirus 8, UniProt O40947); assay: inhibitors of C-LANA binding to LBS DNA, dose response, biochemical, fluorescence polarization, cherry-picked samples (AID 504725); parameters: species or system Human gammaherpesvirus 8;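 also: fluorescence polarization of a labeled DNA duplex reporting LANA DNA binding; potency is for inhibitors that block LANA binding to the DNA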
[13] = HepG2 cell cytotoxicity, dose response, cytotoxicity control, ATP luminescence, cherry-pick, set 6 (AID 1053125); assay type: functional, cell-based
Escherichia coli [14] = assay: microbe, parasite or virus in culture; remark: listed apart in the source
HEK293 [15] = assay: cells; conditions: Homo sapiens
HEK293 [16] = assay: cells; conditions: Homo sapiens; remark: listed apart in the source
Jurkat [17] = assay: SAR Analysis of small molecule inhibitors of T-cell specific antigen receptor-induced NF-kB activation in a Jurkat cell line using a luminescence assay - Set 2. [Related pubchem assays (depositor defined):AID435003, AID435012, AID465]; assay type: functional, cell-based; conditions: Homo sapiens
HEK293 [18] = assay: cytotoxicity in HEK293T NF-kB-Luc cells, SAR follow-up, cytotoxicity control for NF-kB activator project, cell-based, resazurin fluorescence (AID 493251); assay type: functional; conditions: Homo sapiens
HEK293 [19] = assay: SAR Analysis of small molecule inhibitors of T-cell specific antigen receptor-induced NF-kB activation in a HEK-293T cell line using a luminescence assay - Set 2. [Related pubchem assays (depositor defined):AID435003, AID435012, AID489026]; assay type: functional, cell-based; conditions: Homo sapiens
BJ [20] = assay: cytotoxicity toward BJ-TERT-LT-ST fibroblasts, dose response, cell-based, RAS-independent, luminescence (AID 1935); assay type: functional; conditions: Homo sapiens;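 also: BJ fibroblasts immortalized with TERT plus LT and ST oncogenes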
BJ [21] = assay: cytotoxicity toward BJ-TERT fibroblasts, dose response, cell-based, RAS-independent, luminescence (AID 1933); assay type: functional; conditions: Homo sapiens
[22] = target: Luciferin 4-monooxygenase (Photinus pyralis, UniProt P08659); assay: firefly luciferase enzyme inhibitors, dose response, biochemical, luminescence (AID 1891)
[23] = target: T2, Heat shock factor protein 1 (Mus musculus, UniProt P38532); assay: inhibition of MG132-induced HSE-luciferase signal, confirmation, cell-based, NIH3T3, luminescence, dose retest (AID 2382); assay type: functional;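 also: NIH3T3 fibroblasts with HSF1-driven luciferase reporter stressed by proteasome inhibitor MG132; luminescence from HSF1-driven luciferase expression after 8 hours of MG132 stress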
T2 sequence (P38532 whole entry): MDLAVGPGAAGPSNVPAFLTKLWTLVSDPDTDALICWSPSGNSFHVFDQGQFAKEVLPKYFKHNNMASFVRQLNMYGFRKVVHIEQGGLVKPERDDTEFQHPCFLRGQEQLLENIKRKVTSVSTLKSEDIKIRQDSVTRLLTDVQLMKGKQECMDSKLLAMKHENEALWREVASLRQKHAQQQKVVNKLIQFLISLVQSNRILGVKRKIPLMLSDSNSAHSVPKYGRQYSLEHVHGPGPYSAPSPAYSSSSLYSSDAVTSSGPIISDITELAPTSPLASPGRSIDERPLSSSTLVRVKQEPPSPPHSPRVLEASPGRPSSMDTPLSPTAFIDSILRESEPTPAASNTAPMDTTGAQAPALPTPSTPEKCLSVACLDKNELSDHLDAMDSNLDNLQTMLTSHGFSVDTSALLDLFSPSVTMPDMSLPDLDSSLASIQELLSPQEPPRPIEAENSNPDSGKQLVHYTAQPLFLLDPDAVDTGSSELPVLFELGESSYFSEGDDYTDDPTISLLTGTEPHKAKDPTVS

INS1 = assay: beta cell apoptosis inhibitors, cytokine rescue, dose response, luminescence, retest (AID 449756); assay type: functional, cell-based; conditions: Rattus norvegicus;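 also: cell death triggered by IL-1 beta plus TNF-alpha plus IFN-gamma mixture; protective hits raise ATP signal compared with cytokine alone wells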
[24] = off-target signal loss in HeLa-CEM21 co-culture – HeLa F-luc CTL cells, cherry-picked, counter-screen for HIV-1 Env fusion inhibitor project, dose response (AID 652040); assay type: functional, cell-based;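 also: potency for signal decrease marking cytotoxic or nonspecific inhibition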
[25] = inhibitors of SNCA 5'UTR-driven reporter translation, confirmation, H4 neuroglioma cells, luminescence (AID 1988); assay type: functional, cell-based
cells [26] = assay type: functional, cell-based
BJ [27] = assay: cytotoxicity toward Ras-transformed BJeLR fibroblasts, dose response, cell-based, alamar blue fluorescence, cherrypicked samples (AID 2631); assay type: functional; conditions: Homo sapiens;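 also: confirmatory dose-response assay in RAS-dependent BJ fibroblasts engineered with TERT, LT and ST, with cytotoxicity read by fluorescence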
[28] = luciferase reporter signal reduction – luminescence, H4-C neuroglioblastoma cells, dose response (AID 2458); assay type: functional, cell-based;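 also: H4 neuroglioblastoma cells stably carrying a luciferase reporter gene fusion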
[29] = inhibitors of clade B AD8 Env fusion, dose response, cell-based, cherry-pick (AID 652062); assay type: functional;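 also: luciferase signal from cell-cell fusion driven by HIV-1 clade B AD8 Env; potency is for inhibitors of fusion seen as a drop in luminescence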
[30] = inhibitors of firefly luciferase expression or activity, dose response, H4 neuroglioma cells, luminescence (AID 1990); assay type: functional, cell-based
[31] = Luminescence Cell-Based Dose Confirmation HTS to Identify Inhibitors of Platelet Dense Granule Release. [Related pubchem assays: 1663 (Primary HTS), 1678 (Summary of Project)]; assay type: functional
[32] = inhibitors of SNCA 5'UTR-driven translation, confirmation, luminescence, H4 neuroglioblastoma cells, dose confirmation (AID 2454); assay type: functional, cell-based;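 also: H4 neuroglioblastoma cells carrying an alpha-synuclein 5'UTR luciferase reporter; potency for inhibition of the luciferase signal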
BJ [33] = assay: cells; assay type: functional, cell-based; conditions: Homo sapiens
[34] = cytotoxicity in HEK-293T NF-kB-Luc cells, dose response, cytotoxicity control for B/T-cell NF-kB inhibitor project, cell-based, uHTS hits (AID 489019); assay type: functional;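 also: IC50 reflects cytotoxicity as loss of cell viability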
[35] = cytotoxicity toward DRD oncogenic fibroblasts, dose response, cell-based, non-viral oncogenic, luminescence (AID 1934); assay type: functional; conditions: Homo sapiens
[36] = Luminescence Cell-Based Dose Response HTS to Identify Inhibitors of 5'UTR Stem-Loop Driven Prion Protein mRNA Translation in H4 Neuroglioblastoma Cells. [Related pubchem assays: 1827 (Project Summary), 1813 (Primary HTS)]; assay type: functional
[37] = ZM109 Env clade C HIV-1 fusion inhibitors, dose response, HeLa effector, CEM target cells, luciferase, cherry-pick (AID 652058); assay type: functional, cell-based
[38] = CEM21 lymphoblast cell cytotoxicity, dose response, cytotoxicity control for viral fusion inhibitor project, CellTiter-Glo luminescence, cherry-picked (AID 652042); assay type: functional, cell-based;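 also: potency for signal decrease meaning cytotoxicity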
[39] = inhibitors of HIV Env-driven cell fusion, dose response, cherry-pick (AID 652057); assay type: functional, cell-based
Jurkat [40] = assay: antigen receptor-induced NF-kB inhibitors, dose response, Jurkat, luciferase reporter, luminescence, B- and T-cell (AID 489004); assay type: functional, cell-based; conditions: Homo sapiens;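 also: NF-kB luciferase reporter Jurkat cells stimulated with PMA plus ionomycin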

Chain of UDP-galactopyranose mutase (P9WIQ1 whole entry): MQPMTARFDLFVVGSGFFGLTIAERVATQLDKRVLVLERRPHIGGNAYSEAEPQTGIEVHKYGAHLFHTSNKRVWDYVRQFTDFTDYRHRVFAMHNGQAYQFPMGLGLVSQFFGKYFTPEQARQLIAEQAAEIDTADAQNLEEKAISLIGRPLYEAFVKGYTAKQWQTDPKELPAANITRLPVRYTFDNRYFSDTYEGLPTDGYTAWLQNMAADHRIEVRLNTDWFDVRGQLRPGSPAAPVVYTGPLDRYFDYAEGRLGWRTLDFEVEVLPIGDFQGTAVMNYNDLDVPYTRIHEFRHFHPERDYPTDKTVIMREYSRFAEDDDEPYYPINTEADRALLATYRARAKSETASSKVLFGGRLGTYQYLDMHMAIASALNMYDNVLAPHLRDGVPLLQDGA
Chain of Beta Lactamase (Q932Y6 whole entry): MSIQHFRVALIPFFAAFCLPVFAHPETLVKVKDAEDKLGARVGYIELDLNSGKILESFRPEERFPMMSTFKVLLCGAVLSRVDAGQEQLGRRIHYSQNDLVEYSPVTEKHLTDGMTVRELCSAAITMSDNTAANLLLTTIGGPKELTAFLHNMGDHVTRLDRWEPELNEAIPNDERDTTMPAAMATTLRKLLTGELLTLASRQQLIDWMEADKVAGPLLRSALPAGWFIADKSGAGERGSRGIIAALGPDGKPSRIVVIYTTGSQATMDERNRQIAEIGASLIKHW
Chain of Potassium voltage-gated channel subfamily KQT member 2 (O88943 whole entry): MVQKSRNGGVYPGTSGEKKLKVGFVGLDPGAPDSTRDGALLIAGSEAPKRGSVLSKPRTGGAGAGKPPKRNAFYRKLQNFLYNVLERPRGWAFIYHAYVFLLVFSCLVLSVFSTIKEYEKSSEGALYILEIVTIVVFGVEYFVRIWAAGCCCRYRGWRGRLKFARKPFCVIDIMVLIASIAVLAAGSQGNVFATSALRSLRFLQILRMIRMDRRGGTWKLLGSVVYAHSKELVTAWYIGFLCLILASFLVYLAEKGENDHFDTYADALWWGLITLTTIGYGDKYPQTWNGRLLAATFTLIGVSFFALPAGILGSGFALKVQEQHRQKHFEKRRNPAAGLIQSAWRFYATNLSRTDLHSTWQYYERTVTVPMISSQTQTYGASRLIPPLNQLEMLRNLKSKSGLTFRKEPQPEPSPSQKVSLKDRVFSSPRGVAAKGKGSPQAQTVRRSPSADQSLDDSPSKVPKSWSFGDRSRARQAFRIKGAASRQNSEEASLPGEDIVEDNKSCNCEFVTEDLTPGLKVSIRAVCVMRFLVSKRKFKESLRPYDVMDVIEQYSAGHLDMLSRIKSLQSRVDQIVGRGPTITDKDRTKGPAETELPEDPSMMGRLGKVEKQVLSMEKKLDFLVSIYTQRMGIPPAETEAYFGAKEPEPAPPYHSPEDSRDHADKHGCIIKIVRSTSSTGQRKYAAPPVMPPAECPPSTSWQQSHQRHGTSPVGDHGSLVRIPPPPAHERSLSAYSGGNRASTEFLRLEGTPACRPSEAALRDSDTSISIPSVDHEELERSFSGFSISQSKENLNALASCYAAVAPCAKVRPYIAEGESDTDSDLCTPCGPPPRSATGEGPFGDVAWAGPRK
Chain of ORF 73 (O40947 whole entry): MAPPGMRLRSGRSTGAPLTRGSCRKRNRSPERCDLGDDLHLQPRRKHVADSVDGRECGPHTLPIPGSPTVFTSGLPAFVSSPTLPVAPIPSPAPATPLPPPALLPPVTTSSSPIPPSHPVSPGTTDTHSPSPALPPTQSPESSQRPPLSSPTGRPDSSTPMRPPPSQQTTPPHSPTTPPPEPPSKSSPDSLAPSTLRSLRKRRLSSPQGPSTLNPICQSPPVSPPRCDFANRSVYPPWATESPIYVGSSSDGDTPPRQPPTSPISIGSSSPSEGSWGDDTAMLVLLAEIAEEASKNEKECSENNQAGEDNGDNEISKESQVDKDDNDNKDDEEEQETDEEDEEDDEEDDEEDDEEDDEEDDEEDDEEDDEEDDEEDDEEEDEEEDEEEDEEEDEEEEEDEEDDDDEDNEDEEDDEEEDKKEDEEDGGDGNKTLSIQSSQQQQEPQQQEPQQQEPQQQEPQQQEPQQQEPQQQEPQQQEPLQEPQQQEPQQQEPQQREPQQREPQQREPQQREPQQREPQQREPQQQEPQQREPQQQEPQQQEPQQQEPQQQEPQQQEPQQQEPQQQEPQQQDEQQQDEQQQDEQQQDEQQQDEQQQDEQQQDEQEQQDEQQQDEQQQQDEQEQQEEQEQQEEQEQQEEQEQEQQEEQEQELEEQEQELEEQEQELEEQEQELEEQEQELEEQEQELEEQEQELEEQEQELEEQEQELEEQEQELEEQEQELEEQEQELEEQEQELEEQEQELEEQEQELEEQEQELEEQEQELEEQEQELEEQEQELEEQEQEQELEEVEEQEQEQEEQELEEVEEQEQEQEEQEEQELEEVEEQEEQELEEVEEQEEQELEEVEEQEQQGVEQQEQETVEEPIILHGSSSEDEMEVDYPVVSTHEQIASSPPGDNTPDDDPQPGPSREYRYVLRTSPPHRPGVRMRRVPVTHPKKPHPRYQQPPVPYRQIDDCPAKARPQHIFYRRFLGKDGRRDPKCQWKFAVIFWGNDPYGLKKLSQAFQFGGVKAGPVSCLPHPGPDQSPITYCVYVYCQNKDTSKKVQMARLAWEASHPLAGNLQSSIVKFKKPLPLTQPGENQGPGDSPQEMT
Chain of Luciferin 4-monooxygenase (P08659 whole entry): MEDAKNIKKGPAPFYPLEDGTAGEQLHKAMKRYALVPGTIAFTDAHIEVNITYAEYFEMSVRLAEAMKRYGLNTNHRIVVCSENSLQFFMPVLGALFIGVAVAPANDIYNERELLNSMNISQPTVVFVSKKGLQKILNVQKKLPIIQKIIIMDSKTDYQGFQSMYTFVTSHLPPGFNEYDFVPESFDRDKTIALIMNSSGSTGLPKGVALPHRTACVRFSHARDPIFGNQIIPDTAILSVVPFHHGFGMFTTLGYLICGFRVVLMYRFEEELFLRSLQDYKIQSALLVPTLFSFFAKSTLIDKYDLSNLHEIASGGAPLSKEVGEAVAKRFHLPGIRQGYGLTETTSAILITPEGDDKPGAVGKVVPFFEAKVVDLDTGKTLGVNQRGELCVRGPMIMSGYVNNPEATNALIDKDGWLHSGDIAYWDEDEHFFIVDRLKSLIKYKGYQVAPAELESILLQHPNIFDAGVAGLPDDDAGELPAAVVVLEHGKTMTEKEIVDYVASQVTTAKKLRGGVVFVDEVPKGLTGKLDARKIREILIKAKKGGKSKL

COc1cccc(C(=O)NC(=S)Nc2ccccc2N2CCOCC2)c1
AC50 [1]: 33.5 µM (active)
IC50 [2]: 6.01 µM (active)
AC50 [3]: 20.1 µM (active)

Cc1cc(Cl)ccc1NC(=O)CN1CCCC1
AC50 (Escherichia coli [4]): 40 µM (active)

O=C(CSc1nnc(NC(=O)CN2CCOCC2)s1)Nc1ccccc1
AC50 [5]: 47.5 µM (active)

Nc1ccc2ccc3cccc[n+]3c2c1.[O-][Cl+3]([O-])([O-])[O-]
EC50 (HEK293 [6]): 6.89 µM (active)
AC50 (cells [7]): 27.3 µM (active)
IC50 (HEK293 [8]): > 89.2 µM (inactive)
AC50 [9]: 21.4 µM (active)
AC50 [10]: 3.88 µM (active)
IC50 (Beta Lactamase): 9.33 µM (active)
EC50 (Insulin-degrading enzyme [11]): > 54.7 µM (inactive)
EC50 (Insulin-degrading enzyme [12]): > 54.7 µM (inactive)
AC50 (ORF 73): 1.3 µM (active)
AC50 [13]: > 52 µM (inactive)

O=C(CCc1ccccc1)N1CCN(Cc2ccc(F)cc2Cl)CC1
AC50 (Escherichia coli [14]): 66.5 µM (active)

COc1ccc(CNCCc2c[nH]c3ccccc23)c(OC)c1OC
EC50 (HEK293 [15]): > 59.6 µM (inactive)
EC50 (HEK293 [16]): > 59.6 µM (inactive)

COc1ccc(C)cc1NC(=O)c1ccc([N+](=O)[O-])o1
IC50 (Jurkat [17]): 6.03 µM (active)
IC50 (HEK293 [18]): > 80 µM (inactive)
IC50 (HEK293 [19]): 75.6 µM (inactive)

Nc1nc(F)nc2c1ncn2[C@@H]1O[C@H](CO)[C@@H](O)[C@H]1O
EC50 (BJ [20]): 0.46 µM (active)
EC50 (BJ [21]): 0.124 µM (active)
EC50 [22]: > 112 µM (not active)
EC50 [23]: 5.46 µM (active)
AC50 (INS1): 1.35 µM (active)
AC50 [24]: 1.4 µM (active)
EC50 [25]: < 0.1 µM (active)
EC50 (cells [26]): 0.084 µM (active)
EC50 (BJ [27]): 0.348 µM (active)
EC50 [28]: 0.199 µM (active)
AC50 [29]: 1.92 µM (active)
EC50 [30]: 0.242 µM (active)
EC50 [31]: < 0.088 µM (active)
EC50 [32]: 0.07 µM (active)
EC50 (BJ [33]): 1.35 µM (active)
IC50 [34]: > 80 µM (inactive)
EC50 [35]: 0.674 µM (active)
EC50 [36]: < 0.1 µM (active)
AC50 [37]: < 0.26 µM (active)
AC50 [38]: 0.271 µM (active)
AC50 [39]: 0.341 µM (active)
IC50 (Jurkat [40]): 2.35 µM (active)

— ChEMBL document CHEMBL1201862, “PubChem BioAssay data set” (2004)
